Measured values: ChEMBL document CHEMBL1123770, “Systematic synthesis and biological evaluation of alpha- and beta-D-lyxofuranosyl nucleosides of the five naturally occurring nucleic acid bases” (1987)
In brackets after ≈: the same amount, converted by molar mass.

How the values were obtained:
Vero [1] = test: Minimum inhibitory concentration (MIC) required to reduce virus-induced cytopathogenicity by 50% against Parainfluenza virus-3 in African green monkey kidney (Vero B)cells; type: functional, Chlorocebus sabaeus
Oryctolagus cuniculus [2] = species: Oryctolagus cuniculus; test: Minimum inhibitory concentration (MIC) required to reduce virus-induced cytopathogenicity by 50% against G strain of Herpes simplex virus-2 in primary rabbit kidney cells; type: functional
Vero [3] = test: Minimum inhibitory concentration (MIC) required to reduce virus-induced cytopathogenicity by 50% against Reo virus-1 in African green monkey kidney (Vero B)cells; type: functional, Chlorocebus sabaeus
HeLa [4] = test: Minimum cytotoxic concentration (MCC) required to cause a microscopically detectable alteration of host cell morphology, when incubated with HeLa cells; type: functional; details: Homo sapiens
HeLa [5] = test: Minimum inhibitory concentration (MIC) required to reduce virus-induced cytopathogenicity by 50% against Coxsackie virus B4 in HeLa cells; type: functional; details: Homo sapiens
Vero [6] = test: Minimum inhibitory concentration (MIC) required to reduce virus-induced cytopathogenicity by 50% against forest virus in African green monkey kidney (Vero B)cells; type: functional; details: Chlorocebus sabaeus
[7] = Minimum cytotoxic concentration (MCC) required to cause a microscopically detectable alteration of host cell morphology, when incubated with PRK cells; type: functional; details: Oryctolagus cuniculus
WI-38 [8] = test: Minimum inhibitory concentration (MIC) required to reduce virus-induced cytopathogenicity by 50% against Rhinovirus 9 in human diploid (WI-38)cells; type: functional
WI-38 [9] = test: Minimum cytotoxic concentration (MCC) required to cause a microscopically detectable alteration of host cell morphology, when incubated with WI-38 cells; type: functional; details: Homo sapiens
Oryctolagus cuniculus [10] = species: Oryctolagus cuniculus; test: Minimum inhibitory concentration (MIC) required to reduce virus-induced cytopathogenicity by 50% against KOS strain of Herpes simplex virus-1 in primary rabbit kidney cells; type: functional
Vero [11] = test: Minimum inhibitory concentration (MIC) required to reduce virus-induced cytopathogenicity by 50% against Coxsackie virus B4 in African green monkey kidney (Vero B)cells; type: functional, Chlorocebus sabaeus
Vero [12] = test: Minimum inhibitory concentration (MIC) required to reduce virus-induced cytopathogenicity by 50% against Sindbis virus in African green monkey kidney (Vero B)cells; type: functional; details: Chlorocebus sabaeus
Vero [13] = test: Minimum cytotoxic concentration (MCC) required to cause a microscopically detectable alteration of host cell morphology, when incubated with Vero B cells; type: functional; details: Chlorocebus sabaeus
WI-38 [14] = test: Minimum inhibitory concentration (MIC) required to reduce virus-induced cytopathogenicity by 50% against Rhinovirus-1A in human diploid (WI-38)cells; type: functional
Oryctolagus cuniculus [15] = species: Oryctolagus cuniculus; test: Minimum inhibitory concentration (MIC) required to reduce virus-induced cytopathogenicity by 50% against Vaccinia virus in primary rabbit kidney cells; type: functional
[16] = Chlorocebus sabaeus, read-out: MIC
[17] = Oryctolagus cuniculus, read-out: MIC

Compound	MIC (Vero [1]; [16]) [µg/mL]	MIC (Oryctolagus cuniculus [2]; [17]) [µg/mL]	MIC (Vero [3]; [16]) [µg/mL]	MCC (HeLa [4]) [µg/mL]	MIC (HeLa [5]) [µg/mL]	MIC (Vero [6]) [µg/mL]	MCC [7] [µg/mL]	MIC (WI-38 [8]; Homo sapiens, read-out: MIC) [µg/mL]	MCC (WI-38 [9]) [µg/mL]	MIC (Oryctolagus cuniculus [10]) [µg/mL]	MIC (Vero [11]; [16]) [µg/mL]	MIC (Vero [12]) [µg/mL]	MCC (Vero [13]) [µg/mL]	MIC (WI-38 [14]) [µg/mL]	MIC (Vero [1]) [µg/mL]	MIC (Oryctolagus cuniculus [2]) [µg/mL]	MIC (Vero [3]) [µg/mL]	MIC (Oryctolagus cuniculus [15]) [µg/mL]	MIC (WI-38 [8]) [µg/mL]	MIC (Vero [11]) [µg/mL]
Cc1cn([C@H]2O[C@H](CO)[C@H](O)[C@@H]2O)c(=O)[nH]c1=O	> 400	> 400	> 200	> 400	> 400	> 400	> 400	> 400	> 400	> 400	> 400	> 400	> 400	> 400	–	–	–	–	–	–
Nc1ncnc2c1ncn2[C@@H]1O[C@H](CO)[C@H](O)[C@@H]1O (stereo in doubt; 22d)	–	–	–	–	–	–	–	–	–	–	–	–	–	> 400	>200	>400	>200	200 (≈ 748 µM)	>400	100 (≈ 374 µM)
O=c1ccn([C@@H]2O[C@H](CO)[C@H](O)[C@@H]2O)c(=O)[nH]1	> 400	> 400	> 400	> 400	> 400	> 400	> 400	100 (≈ 409 µM)	> 400	> 400	> 100	> 400	> 400	> 400	–	–	–	–	–	–
Nc1ccn([C@H]2O[C@H](CO)[C@H](O)[C@@H]2O)c(=O)n1	> 400	> 400	> 400	> 400	> 400	> 400	> 400	> 400	> 400	> 400	> 400	> 400	> 400	> 400	–	–	–	–	–	–
Nc1nc2c(ncn2[C@H]2O[C@H](CO)[C@H](O)[C@@H]2O)c(=O)[nH]1	> 400	> 400	> 400	> 400	> 400	> 400	> 400	200 (≈ 706 µM)	> 400	> 400	> 400	> 400	> 400	> 400	–	–	–	–	–	–
